Where a name gives a salt, the structure may show the parent alone.
Structure (SMILES)	melting point
N=C(N)c1ccc2c(c1)CN(CC(=O)c1ccc(OCC(=O)O)cc1O)C2=O (as salt: trifluoroacetate) [Example 44, (4-{2-[5-Carbamimidoyl-1-oxo-1,3-dihydro-isoindol-2-yl]-acetyl}-3-hydroxy-phenoxy)-acetic acid]	262 °C (dec.)
CC(C)COC(=O)COc1ccc(C(=O)CN2Cc3cc(C(=N)N)ccc3C2=O)cc1OCC(=O)OCC(C)C (as salt: hydroiodid) [Example 24, (4-{2-[5-Carbamimidoyl-1-oxo-1,3-dihydro-isoindol-2-yl]-acetyl}-2-isobutoxycarbonylmethoxy-phenoxy)acetic acid isobutyl ester]	95 to 96 °C
COC(=O)NC(=N)c1ccc2c(c1)CN(CC(=O)c1ccc(OCC(=O)OCC(C)C)cc1)C2=O [Example 11, (4-{2-[5-(Imino-methoxycarbonylamino-methyl)-1-oxo-1,3-dihydro-isoindol-2-yl]-acetyl}-phenoxy)-acetic acid isobutyl ester]	162 to 163 °C
CCOC(=O)COc1ccc(C(=O)CN2Cc3cc(-c4nc(=O)o[nH]4)ccc3C2=O)c(O)c1 [Example 78, (3-Hydroxy-4-{2-[1-oxo-5-(5-oxo-2,5-dihydro-[1,2,4]oxadiazol-3-yl)-1,3-dihydro-isoindol-2-yl]-acetyl}-phenoxy)-acetic acid ethyl ester]	223 to 225 °C
CCOC(=O)COC1CCN(C(=O)CN2Cc3cc(C(=N)NC(=O)OC(C)(C)C)ccc3C2=O)CC1 (hydrate or solvate) [Example 72, (1-{2-[5-(tert-Butoxycarbonylamino-imino-methyl)-1-oxo-1,3-dihydro-isoindol-2-yl]-acetyl}-piperidin-4-yloxy)-acetic acid ethyl ester]	83 to 85 °C
COC(=O)COc1ccc(C(=O)CN2Cc3cc(C(=N)N)ccc3C2=O)cc1 (as salt: salt) [Example 1, (4-{2-[5-Carbamimidoyl-1-oxo-1,3-dihydro-isoindol-2-yl]-acetyl}-phenoxy)-acetic acid methyl ester]	181 to 182 °C
CCN(CC)C(=O)COc1ccc(C(=O)CN2Cc3cc(C(=N)N)ccc3C2=O)cc1 (as salt: salt) [Example 25, 2-(4-{2-[5-Carbamimidoyl-1-oxo-1,3-dihydro-isoindol-2-yl]-acetyl}-phenoxy)-N,N-diethyl-acetamide]	194 to 195 °C
CCOC(=O)COc1ccc(C(=O)CN2Cc3cc(C(=N)N)ccc3C2=O)cc1SCC (as salt: salt) (hydrate or solvate) [Example 33, (4-{2-[5-Carbamimidoyl-1-oxo-1,3-dihydro-isoindol-2-yl]-acetyl}-2-ethylsulfanyl-phenoxy)-acetic acid ethyl ester]	185 to 186 °C
CC(C)COC(=O)COc1ccc(C(=O)CN2Cc3cc(C(=N)NC(=O)OCc4ccccc4)ccc3C2=O)cc1 [Example 13, (4-{2-[5-(Benzyloxycarbonylamino-imino-methyl)-1-oxo-1,3-dihydro-isoindol-2-yl]-acetyl}-phenoxy)-acetic acid isobutyl ester]	139 to 140 °C
COC(=O)NC(=N)c1ccc2c(c1)CN(CC(=O)c1ccc(OCC(=O)OCc3ccccc3)cc1)C2=O (hydrate or solvate) [Example 18, (4-{2-[5-(Imino-methoxycarbonylamino-methyl)-1-oxo-1,3-dihydro-isoindol-2-yl]-acetyl}-phenoxy)-acetic acid benzyl ester]	184 to 186 °C
CCOC(=O)COC1CCN(C(=O)CN2Cc3cc(C(=N)N)ccc3C2=O)CC1 (as salt: salt) (hydrate or solvate) [Example 71, (1-{2-[5-Carbamimidoyl-1-oxo-1,3-dihydro-isoindol-2-yl]-acetyl}-piperidin-4-yloxy)-acetic acid ethyl ester]	189 to 190 °C
CCOC(=O)COc1ccc(C(=O)CN2Cc3cc(-c4noc(C)n4)ccc3C2=O)c(OC(C)=O)c1 [Example 80, (3-Acetoxy-4-{2-[5-(5-methyl-[1,2,4]oxadiazol-3-yl)-1-oxo-1,3-dihydro-isoindol-2-yl]acetyl}-phenoxy)-acetic acid ethyl ester]	162 to 164 °C
CC(C)COC(=O)COc1ccc(C(=O)CN2Cc3cc(C(=N)NC(=O)OCC(C)C)ccc3C2=O)cc1 (hydrate or solvate) [Example 12, (4-{2-[5-(Imino-isobutoxycarbonylamino-methyl)-1-oxo-1,3-dihydro-isoindol-2-yl]-acetyl}-phenoxy)-acetic acid isobutyl ester]	140 to 141 °C
CCOC(=O)COc1ccc(C(=O)CN2Cc3cc(C(=N)N)ccc3C2=O)cc1OCC(=O)OCC (as salt: salt) (hydrate or solvate) [Example 20, (4-{2-[5-Carbamimidoyl-1-oxo-1,3-dihydro-isoindol-2-yl]-acetyl}-2-ethoxycarbonylmethoxy-phenoxy)-acetic acid ethyl ester]	168 to 169 °C
CCOC(=O)COC1CCN(C(=O)CCN2Cc3cc(C(=N)NO)ccc3C2=O)CC1 [Example 69, (1-{3-[5-(N-Hydroxycarbamimidoyl)-1-oxo-1,3-dihydro-isoindol-2-yl]-propionyl}-piperidin-4-yloxy)-acetic acid ethyl ester]	151 to 152 °C

Results, then the compound that gave them:

melting point	Structure (SMILES)
209 to 210 °C	CCOC(=O)COc1cc(O)c(C(=O)CN2Cc3cc(C(=N)NO)ccc3C2=O)c(OC)c1 [Example 62, (3-Hydroxy-4-{2-[5-(N-hydroxycarbamimidoyl)-1-oxo-1,3-dihydro-isoindol-2-yl]-acetyl}-5-methoxy-phenoxy)-acetic acid ethyl ester]
199 to 200 °C	CCCc1c(OCC(=O)OCc2ccccc2)ccc(C(=O)CN2Cc3cc(C(=N)NO)ccc3C2=O)c1O [Example 59, (3-Hydroxy-4-{2-[5-(N-hydroxycarbamimidoyl)-1-oxo-1,3-dihydro-isoindol-2-yl]-acetyl}-2-propyl-phenoxy)-acetic acid benzyl ester]
226 to 228 °C	CCOC(=O)COc1ccc(C(=O)CN2Cc3cc(C(=N)NO)ccc3C2=O)c(O)c1C (hydrate or solvate) [Example 55, (3-Hydroxy-4-{2-[5-(N-hydroxycarbamimidoyl)-1-oxo-1,3-dihydro-isoindol-2-yl]-acetyl}-2-methyl-phenoxy)-acetic acid ethyl ester]
195 to 196 °C	CCOC(=O)COc1ccc(C(=O)CN2Cc3cc(C(=N)N)ccc3C2=O)c(O)c1 (as salt: salt) [Example 41, (4-{2-[5-Carbamimidoyl-1-oxo-1,3-dihydro-isoindol-2-yl]-acetyl}-3-hydroxy-phenoxy)-acetic acid ethyl ester]
175 to 178 °C	CCOC(=O)COc1ccc(C(=O)CN2Cc3cc(C(=N)NO)ccc3C2=O)cc1 (hydrate or solvate) [Example 4, (4-{2-[5-(N-Hydroxycarbamimidoyl)-1-oxo-1,3-dihydro-isoindol-2-yl]-acetyl}-phenoxy)-acetic acid ethyl ester]
222 to 223 °C	CCCc1c(OCC(=O)O)ccc(C(=O)CN2Cc3cc(C(=N)N)ccc3C2=O)c1O (as salt: trifluoroacetic acid salt) [Example 60, (4-{2-[5-Carbamimidoyl-1-oxo-1,3-dihydro-isoindol-2-yl]-acetyl}-3-hydroxy-2-propyl-phenoxy)-acetic acid]
196 to 197 °C	CCOC(=O)COc1ccc(C(=O)CN2Cc3cc(C(=N)NO)ccc3C2=O)cc1S(=O)(=O)CC [Example 36, (2-Ethanesulfonyl-4-{2-[5-(N-hydroxycarbamimidoyl)-1-oxo-1,3-dihydro-isoindol-2-yl]-acetyl}-phenoxy)-acetic acid ethyl ester]
163 to 165 °C	CCOC(=O)COc1ccc(C(=O)CN2Cc3cc(C(=N)NO)ccc3C2=O)c(OC)c1 [Example 45, (4-{2-[5-(N-Hydroxycarbamimidoyl)-1-oxo-1,3-dihydro-isoindol-2-yl]-acetyl}-3-methoxy-phenoxy)-acetic acid ethyl ester]
153 to 154 °C	CC(C)COC(=O)COc1ccc(C(=O)CN2Cc3cc(C(=N)NO)ccc3C2=O)cc1 [Example 15, (4-{2-[5-(N-Hydroxycarbamimidoyl)-1-oxo-1,3-dihydro-isoindol-2-yl]-acetyl}-phenoxy)-acetic acid isobutyl ester]
153 to 155 °C	CCOC(=O)COc1ccc(C(=O)CN2Cc3cc(C(=N)NO)ccc3C2=O)c(O)c1OCC(=O)OCC [Example 64, (2-Ethoxycarbonylmethoxy-3-hydroxy-4-{2-[5-(N-hydroxycarbamimidoyl)-1-oxo-1,3-dihydro-isoindol-2-yl]-acetyl}-phenoxy)-acetic acid ethyl ester]
177 to 178 °C	CCOC(=O)COc1cc(O)c(C(=O)CN2Cc3cc(C(=N)NO)ccc3C2=O)cc1C(C)(C)C [Example 52, (2-tert-Butyl-5-hydroxy-4-{2-[5-(N-hydroxycarbamimidoyl)-1-oxo-1,3-dihydro-isoindol-2-yl]-acetyl}-phenoxy)-acetic acid ethyl ester]
218 to 219 °C	CCOC(=O)COc1cc(O)c(C(=O)CN2Cc3cc(C(=N)NO)ccc3C2=O)cc1CC [Example 50, (2-Ethyl-5-hydroxy-4-{2-[5-(N-hydroxycarbamimidoyl)-1-oxo-1,3-dihydro-isoindol-2-yl]-acetyl}-phenoxy)-acetic acid ethyl ester]
186 to 188 °C	CCOC(=O)COc1cc(O)c(C(=O)CN2Cc3cc(C(=N)NO)ccc3C2=O)cc1OCC(=O)OCC (hydrate or solvate) [Example 65, (2-Ethoxycarbonylmethoxy-5-hydroxy-4-{2-[5-(N-hydroxycarbamimidoyl)-1-oxo-1,3-dihydro-isoindol-2-yl]-acetyl}-phenoxy)-acetic acid ethyl ester]
158 to 159 °C	CCOC(=O)COc1ccc(O)c(C(=O)CN2Cc3cc(C(=N)NO)ccc3C2=O)c1 [Example 61, (4-Hydroxy-3-{2-[5-(N-hydroxycarbamimidoyl)-1-oxo-1,3-dihydro-isoindol-2-yl]-acetyl}-phenoxy)-acetic acid ethyl ester]

From patent US7964628B2, “Fibrinogen receptor antagonists and their use” (Piramal Life Sciences Limited, priority 2003, dated 2011)
